As a reminder, the IC50 is the concentration that gives 50% inhibition.

The test system of data set [1] is PMN. Briefly: PMN cytosolic calcium concentration (Indo-loaded PMN). It counts as cell-based, human.
For data set [2], the system named is polymorphonuclear neutrophils (PMN). It is filed as cell-based. The settings on record: 10 nM human recombinant C5a; cells concomitantly exposed to peptide and agonist; read-out: IC50 for C5a-induced chemotaxis. How it is done: Whole blood was obtained from a normal human volunteer population and PMN were isolated by ficoll-hypaque gradient centrifugation followed dextran sedimentation, as described by Cooper et al., (1991).
The degree of inhibition of PMN chemotaxis by natural purified inhibitor or synthetic peptides was determined as described by Cooper et al. (1991) using 100 nM formyl-methionyl-leucyl-phenylalanine (fMLP), 10 nM human recombinant C5a or 10 nM leukotriene B4 and multiwell chemotaxis chambers (Neuroprobe Inc., Bethesda, Md.) employing nitrocellulose membranes. Isoelectric focused fractions or HPLC elution fractions were diluted 1:1000 in a final concentration of the above agonists. Controls included buffer alone or C5a diluted in buffer alone.
22 μl of samples were placed in bottom wells of the chemotaxis chamber, a nitrocellulose membrane with 3 μm pores was overlaid as was a rubber gasket. […] Chemotaxis was assessed by comparing the maximal distance migrated to agonist alone or in the presence of an irrelevant peptide (μm minus migration to buffer alone) and comparing to the distance migrated to agonist plus elution fractions or synthetic peptides. The percentage of total cells migrating 10 μm increments from 0 to 120 μm was also determined by image analysis (Olympus Instruments) and treatment groups were compared to controls. […]

Data set [3] concerns PMN. The data set is described as follows: PMN viability by LDH release. How it is done:
PMN viability after exposure to NIP (seq id no:1) or control peptide for varying amounts of time was assessed by measuring LDH release using a commercially available kit (Sigma).
Background: Release of lactate dehydrogenase indicates damage to the cell membrane.

Where no end group is shown, it is not given here.

For the compound `COc1cc(N(CC(=O)OCOC(C)=O)CC(=O)OCOC(C)=O)c2nc(COc3cc(C)ccc3N(CC(=O)OCOC(C)=O)CC(=O)OCOC(C)=O)ccc2c1` [Quin 2 AM], the “buffering of rises in cytosolic calcium concentrations” value with PMN [1] (10 μM, after 1 μM fMLP stimulation) was “significantly buffered”.

For the compound “EGSYFFGDNA [NIP-Arg, Glu-Gly-Ser-Tyr-Phe-Phe-Gly-Asp-Asn-Ala]”, the IC50 in data set [2] was determined as 6 µM.

“REGSYFFGDNA [NIP, Arg-Glu-Gly-Ser-Tyr-Phe-Phe-Gly-Asp-Asn-Ala]”: the IC50 in data set [2] was 2 µM. The “[LDH] of supernatant” value with PMN [3] (5 μM, 5 min exposure) was 37.2 ± 6.3; with PMN [3] (5 μM, 15 min exposure), 40.8 ± 3.7; in the data set on PMN [3] (5 μM, 30 min exposure), 30.2 ± 4.25; in the data set with PMN [3] (5 μM, 60 min exposure), 35 ± 5.5. For the same compound, in the data set with PMN [3] (concentrations that inhibited chemotaxis and oxidant production), the “cellular viability as determined by LDH release” value is recorded as “did not significantly alter”.

For the compound “SNRGFAYFDEG [Control peptide, Ser-Asn-Arg-Gly-Phe-Ala-Tyr-Phe-Asp-Glu-Gly, reference compound]”, the “[LDH] of supernatant” value with PMN [3] (5 μM, 60 min exposure) is reported as 39.2 ± 6.5.

Turning to Triton [reference compound], in the data set with PMN [3] (0.1%, 5 min exposure), the “[LDH] of supernatant” value was determined as 252 ± 6.5.

pertussis toxin: in the data set on PMN [1] (pertussis toxin pretreatment), the “ionomycin-induced rise in cytosolic calcium” value is recorded as “no effect” and the “rise in cytosolic calcium concentration induced by 1 μM FMLP” value was “Attenuation”.

These data come from US5861475A, “Compositions and methods for the inhibition of phagocytes” (Research Corporation Technologies, Inc., priority 1996, dated 1999).
